Assay results taken from patent US20180252703A1, “AN IN VITRO 3D CELL CULTURE MODEL-BASED TUMOR RELAPSE ASSAY” (INSPHERO AG, priority 2015, published 2018).

Legend:
[1] = tested on: HCT-116 3D InSight colorectal cancer microtissues; experiment: Tumor relapse assay: 5-day pulsed versus 10-day continuous treatment of HCT-116 microtissues, read by size and intra-tissue ATP, relapse index ReI; type: cell-based; settings: for tumor relapse index (ReI): 5-day pulsed treatment, growth profiles over 10 days; for growth after the 5-day treatment: at the respective IC50 concentration; for tumor re-growth after removing the compound after a 5-day treatment: lower drug concentrations: 6 nM taxol, 50 nM doxorubicin, 125 nM staurosporine, size or intra-tissue ATP content; for phenotype of re-growth after drug removal: phenotypic analysis, taxol at low concentrations (6 nM); for ReI at IC50, times higher than at IC20: ReI at IC50 relative to ReI at IC20
Experimental: (§1) Microtissues were treated in GravityTRAP™ plates with the indicated compound dilutions (n=4), leading to 0.5% DMSO in the cell culture medium. As a control, microtissues were exposed to 0.5% DMSO without a compound. Upon medium exchange, compounds were re-added where indicated. The treatment was performed over 10 days, however, for 2 tissues per group, the compound exposure was discontinued after 5 days and they were thereafter incubated in medium without compound (n=2).
(§2) GravityTRAP™ plates containing treated microtissues were scanned with Cell^3iMager (Dainippon, Japan) with a resolution of 4800 dpi. Microtissue size was assessed with the software provided by the manufacturer.
(§3) Air bubbles interfering with the size analysis were excluded manually, either by adjusting the image section to be analyzed by the software or by cropping the area designated to a microtissue after size measurement. The acquired data was normalized to the non-treated control (S=size of microtissue).
In order to determine the number of viable cells per microtissue, the amount of intracellular ATP as a measure for metabolic activity was determined by using CellTiter-Glo® Luminescent Cell Viability Assay (Promega; Madison, USA). The assay was performed according to the manufacturer's protocol with slight adaptations specific to microtissues. In brief, supernatant was removed and lysis of microtissues initiated by adding 40 μl diluted CellTiter-Glo Reagent (1:2 in PBS). The cell lysis was enhanced by pipetting up and down prior to transfer into an opaque white assay plate. […] The acquired data was normalized to the non-treated control:
To generate the tumor relapse index the growth profiles of the pulsed treatment groups were compared to the growth curves of the vehicle-only treated microtissues and the lowest maximum concentration treated group (FIG. 7). The impact of the pulsed drug treatment was set relative to the control and the maximum response of the respective drug (FIGS. 5 and 6).
To determine a tumor relapse index, the sizes (e.g., diameter, volume or area of an optical cross section) of at least one 3-dimensional cell culture or tissue in the continuous treatment group, the pulsed treatment group and the untreated control group are determined at a given point of time (endpoint measurement).
Then, (i) the difference (e.g., d2) between the size of at least one 3-dimensional cell culture or tissue in the continuous treatment group and at least one 3-dimensional cell culture or tissue in the pulsed treatment group is formed, and
(ii) the difference (e.g., d1) between the size of at least one 3-dimensional cell culture or tissue in the pulsed treatment group and at least one 3-dimensional cell culture or tissue in the untreated control group is formed.
Then, a quotient is formed out of the two differences (e.g., d1/d^2) to deliver a tumor relapse index. Such tumor relapse indices can be determined for different inhibitory concentration of the respective anti-cancer agents.

[2] = tested on: HCT-116 3D InSight colorectal cancer microtissues; experiment: Dose response of HCT-116 3D microtissues by size (area) after 5 days of compound exposure; type: cell-based; settings: Homo sapiens, HCT-116, 120 h; tissue size (area), after 5 days exposure
Experimental: After microtissue formation, spheroids were transferred into GravityTRAP™ plates for further experiments. Medium was refreshed at days 4, 6 and 8 post-transfer to assay plates.
From the stock solutions, two-fold serial dilutions in DMSO were prepared for each compound, leading to 200× concentrated working dilutions.
as §1
IC20 and IC50 values were determined by plotting the tissue size over the compound concentration after incubation over 5 days.
as §2, §3
Dose response based on the size (area) of the tumor microtissue were used to define IC20, IC50 and the lowest maximum response concentration [nM].

Structure (SMILES)	re-growth compared to continuous treated counterparts ([1]; 125 nM and 500 nM, drug removed after 5 days, size and intra-tissue ATP)	tumor relapse index (ReI) ([1]; at IC50 concentration)	growth after the 5-day treatment [1]	tumor re-growth after removing the compound after a 5-day treatment [1]	phenotype of re-growth after drug removal [1]	IC20 [2] [nM]	capacity to re-grow after drug removal ([1]; 50 nM treated group compared with 100 nM treated group)	ReI at IC50, times higher than at IC20 [1] [times]	tumor relapse index (ReI) ([1]; at IC20 concentration)	IC50 [2] [nM]	tumor removal ([1]; high concentrations, after 5 days)
CN[C@@H]1C[C@H]2O[C@@](C)([C@@H]1OC)n1c3ccccc3c3c4c(c5c6ccccc6n2c5c31)C(=O)NC4 [staurosporine]	re-grew substantially	0.56	growth occurred even in a similar extent as in the non-treated control culture	tumor re-growth was observed	regrew symmetrically	31.2					
COc1cccc2c1C(=O)c1c(O)c3c(c(O)c1C2=O)C[C@@](O)(C(=O)CO)C[C@@H]3O[C@H]1C[C@H](N)[C@H](O)[C@H](C)O1 [doxorubicin]		2.1	the tumor was still able to grow	tumor re-growth was observed	regrew symmetrically	50	stronger capacity to re-grow	6.6	0.32	200	
CC(=O)O[C@H]1C(=O)[C@@]2(C)[C@H]([C@H](OC(=O)c3ccccc3)[C@]3(O)C[C@H](OC(=O)[C@H](O)[C@@H](NC(=O)c4ccccc4)c4ccccc4)C(C)=C1C3(C)C)[C@]1(OC(C)=O)CO[C@@H]1C[C@@H]2O [taxol]		15.3	hardly any growth could be observed	tumor re-growth was observed	regrew side-specific	6.25		26	0.59	12.5	nearly complete tumor removal
